Earlier results on one compound are cited in publication PMC10747602, “Dose Response, Dosimetric, and Metabolic Evaluations of Replacement PFAS Perfluoro-(2,5,8-trimethyl-3,6,9-trioxadodecanoic) Acid (HFPO-TeA)” (Toxics, 2023).

This data set concerns rats. Further details: method as in PMID 28962433, PMID 30920876. Conditions: exposures up to 500 mg/kg/day; cited from earlier work.

As for `O=C(O)C(F)(OC(F)(F)C(F)(F)C(F)(F)F)C(F)(F)F` (stereo not shown) [HFPO-DA, perfluoro-2-methyl-3-oxahexanoic acid], the premature mortality result is “no reported premature mortality”.
